In brackets after ≈: the same amount, converted by molar mass.
Assays:
Solubility = format: physicochemical
P388/ADM = assay: Inhibition of cell growth (MTT); format: cell-based, Mouse
Method: (§1) Each cell defined in Table 3 was put in each well of a 96-well microtiter plate in one 0.1 ml-scale containing the defined number of cells and preincubated for one day under the same condition as in 1). PA-48153C (0.1 ml) was added to each well in such a manner that its final concentration was in a range from 0 to 5,000 ng/ml. After 3-4 days incubation, 25 μl of 6 mg/ml MTT [3-(4,5-dimethylthiazol-2-yl)-2,5-diphenyltetrazolium bromide] (Sigma) was added to each well. After further incubation at 37° C. for 4 hr under the same condition, formazan generated therein was dissolved by adding 50 μl of 20% […] (SDS) in 0.02N HCl and allowing to stand at 37° C. for 24 hr. An amount of formazan generated in proportion to the number of live cells was determined according to optical density analyzed by an immunoreader (Sanko Junyaku k.k.) equipped with a 570 nm-filter (reference to J. Immunol. Methods 65, 55-63 (1983)). IC50 (concentration inhibiting 50% cell growth) was calculated from the correlativity of PA-48153C concentration with optical density.

tumor cells = assay: Inhibition of cell growth (MTT), summary over tumor cells; format: cell-based
Method: as §1

Candida albicans KE-2 = assay: Antifungal activity, liquid doubling dilution method; format: cell-based; settings: KE2, YNB broth, 48 hr, 37° C., read-out: minimum inhibitory concentration (MIC)
Method: (§2) Antifungal activity of PA-48153C was determined according to the liquid doubling dilution method using Sabouraud or YNB broth.

[1] = tested on: Aspergillus fumigatus IFO 8866; assay: as above; format: cell-based; settings: IFO8866, Sabouraud broth, 24 hr, 37° C., read-out: minimum inhibitory concentration (MIC)
Method: as §2

[2] = tested on: Con A reaction of mouse splenic cell; assay: Effect on mitogenic responses (Con A reaction of mouse splenic mononuclear cells, [3H]-TdR incorporation); format: cell-based, C3H/HeN mice
Method: Splenic mononuclear cells (5×10^5) from C3H/HeN mice were suspended in 0.2 ml of RPMI 1640 medium containing 10% fetal bovine serum and 5×10^-5 M 2-mercaptoethanol (RPMI/FCS) and plated 96-well microtiter plates. The cells were cultured with 5 μg/ml of Concanavalin A (Con A; Type IV, Sigma Chemical Co.) for 72 hr at 37° C. in a humidified atmosphere of 5% carbon dioxide and 95% of air. PA-48153C was dissolved in dimethyl sulfoxide (DMSO) and added to the mitogenic response. The final concentration was not more than 100 ng/ml. Eighteen hours before harvesting, 0.5 μCi of tritiated thymidine ([^3 H]-TdR) was added to each well. The cells were harvested onto glass filter paper using a semi-automated multiple cell harvester, and [^3 H]-TdR incorporation was determined by liquid scintillation counter.

CCD-19Lu = assay: Inhibition of cell growth (MTT); format: cell-based; settings: Human normal lung, MEM, 2 × 10^4 cells/well, 3-4 days, read-out: IC50 (concentration inhibiting 50% cell growth)
Method: as §1

P388 = assay: Inhibition of cell growth (MTT); format: cell-based; settings: Mouse leukemia, RPMI 1640, 5 × 10^2 cells/well, 3-4 days, read-out: IC50 (concentration inhibiting 50% cell growth)
Method: as §1

[3] = tested on: allo-MLR (C3H/HeN mouse splenic mononuclear cells with C57BL/6 mouse splenic mononuclear cells); assay: Allogenic mixed lymphocyte reaction (allo-MLR) in vitro, [3H]-TdR incorporation; format: cell-based; settings: 144 h, 6 days, read-out: IC50 value inhibiting allo MLR
Method: Induction and assay of allo-MLR were performed in 96 well microtiter plates. C3H/HeN (H-2^k) mouse splenic mononuclear cells (5×10^5 cells in 0.1 ml of RPMI/FCS) were mixed with an equal volume of mitomycin C-treated (50 μg/ml, 37° C., 30 min, washed 3 times with RPMI 1640) C57BL/6 (H-2^b) mouse splenic mononuclear cells (5×10^5 cells) and incubated with RPMI/FCS in 96 well microtiter plate for 6 days under the same condition as described in 1). PA-48153C was added to the allo-MLR in such a manner that its final concentration was not more than 100 ng/ml. Eighteen hours before harvesting, 0.5 μCi of [^3 H]-TdR was pulsed to each well. The cells were harvested and assayed for allo-MLR by their ability to uptake [^3 H]-TdR incorporation.

LU-99 = assay: Inhibition of cell growth (MTT); format: cell-based, Human
Method: as §1

Solubility in water (Solubility; water): insoluble in water
IC50 (P388/ADM; P388/ADM, Mouse leukemia (multi-resistant carcinoma), RPMI 1640, 5 × 10^2 cells/well, 3-4 days, read-out: IC50 (concentration inhibiting 50% cell growth)): 4.8 ng/mL (≈ 0.0148 µM)
MIC (Candida albicans KE-2): 50000 ng/mL (≈ 154 µM)
MIC [1]: 12500 ng/mL (≈ 38.5 µM)
IC50 ([2]; Mus musculus, Con A 5 μg/ml, 72 hr): 4.8 ng/mL (≈ 0.0148 µM)
IC50 (P388): 1.8 ng/mL (≈ 0.00555 µM)
IC50 [3]: 3.1 ng/mL (≈ 0.00955 µM)
Structure (SMILES): C/C=C/C[C@H](C)[C@@H](OC)[C@@H](C)[C@H](O)C[C@H]1OC(=O)C=C[C@H]1CC (relative stereo) [PA-48153C, (5R*,6R*)-5-ethyl-5,6-dihydro-6-[(E)-(2R*,3S*,4R*,5S*)-2-hydroxy-4-methoxy-3,5-dimethyl-7-nonenyl]-2H-pyran-2-one]
Solubility in organic solvents (Solubility; n-hexane, ethyl acetate, chloroform, methanol): soluble in n-hexane, ethyl acetate, chloroform, methanol
growth inhibition of multi-resistant carcinoma P388/ADM (in words) (P388/ADM): strongly inhibits the growth of multi-resistant carcinoma P388/ADM
growth inhibition of tumor cells (in words) (tumor cells): strongly inhibits the growth of tumor cells
inhibition at 0.0017 µg/mL ([2]; Mus musculus, PA-48153C 1.7 ng/ml, Con A 5 μg/ml, 72 hr): 83.8%
inhibition at 0.0056 µg/mL ([2]; Mus musculus, PA-48153C 5.6 ng/ml, Con A 5 μg/ml, 72 hr): 61.6%
inhibition at 0.05 µg/mL ([2]; Mus musculus, PA-48153C 50.0 ng/ml, Con A 5 μg/ml, 72 hr): 94%
Radioactivity cpm ± SD ([2]; PA-48153C 1.7 ng/ml, Con A 5 μg/ml, 72 hr): 10,200 ± 451 cpm
Radioactivity cpm ± SD ([2]; PA-48153C 5.6 ng/ml, Con A 5 μg/ml, 72 hr): 24,200 ± 883 cpm
Radioactivity cpm ± SD ([2]; PA-48153C 50.0 ng/ml, Con A 5 μg/ml, 72 hr): 3,780 ± 141 cpm
inhibition of proliferative response to Con A (in words) ([2]; splenic mononuclear cell from normal mice): inhibited the proliferative response of splenic mononuclear cell from normal mice to Con A in a dose-dependent fashion
IC50 (CCD-19Lu): > 5000 ng/mL
IC50 (LU-99; Lu-99, Human giant-cell carcinoma of lung, RPMI 1640, 2 × 10^3 cells/well, 3-4 days, read-out: IC50 (concentration inhibiting 50% cell growth)): 2.2 ng/mL (≈ 0.00678 µM)
IC50 to normal lung cell CCD-19Lu relative to that to giant-cell carcinoma of lung Lu-99 (LU-99; ratio CCD-19Lu / Lu-99): at least 2,500 times

From US5314911A, “Immunosuppressive agent” (Shionogi Seiyaku Kabushiki Kaisha, priority 1992, dated 1994)
